Reference: publication PMC11831560, “Development of the Pyrido[2,3-d]pyrimidin-7(8H)-one Scaffold toward Potent and Selective NUAK1 Inhibitors” (ACS Medicinal Chemistry Letters, 2025)

Columns and labels:
p38b MAPK = p38b MAPK (Homo sapiens, UniProt Q15759); assay: Kinase panel radiometric filter binding (33P-ATP); type: biochemical; parameters: dose or concentration left out as unconfirmed
In short: (§1)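 A single 1 µM concentration of each compound is applied to a panel of 140 kinases. Phosphotransfer from 33P-ATP is then quantified by radiometric filter binding. Kinases left with <20% activity are followed up by pIC50 determination.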

PKBa = PKBa (Homo sapiens, UniProt P31749); assay: Kinase panel radiometric filter binding (33P-ATP); type: biochemical; parameters: dose or concentration left out as unconfirmed
In short: as §1

PKCγ = PKCγ (Homo sapiens, UniProt P05129); assay: Kinase panel radiometric filter binding (33P-ATP); type: biochemical; parameters: dose or concentration left out as unconfirmed
In short: as §1

CK2 = CK2 (Homo sapiens, UniProt P68400); assay: Kinase panel radiometric filter binding (33P-ATP); type: biochemical; parameters: dose or concentration left out as unconfirmed
In short: as §1

PAK5 = PAK5 (Homo sapiens, UniProt Q9P286); assay: Kinase panel radiometric filter binding (33P-ATP); type: biochemical; parameters: dose or concentration left out as unconfirmed
In short: as §1

BRK = BRK (Homo sapiens, UniProt Q13882); assay: Kinase panel radiometric filter binding (33P-ATP); type: biochemical; parameters: dose or concentration left out as unconfirmed
In short: as §1

NUAK1 = molecular target: T1, NUAK1 (Homo sapiens, UniProt O60285); assay: Kinase panel radiometric filter binding (33P-ATP); type: biochemical; parameters: purchased MRC PPU; dose or concentration left out as unconfirmed
T1 sequence (O60285 1-661): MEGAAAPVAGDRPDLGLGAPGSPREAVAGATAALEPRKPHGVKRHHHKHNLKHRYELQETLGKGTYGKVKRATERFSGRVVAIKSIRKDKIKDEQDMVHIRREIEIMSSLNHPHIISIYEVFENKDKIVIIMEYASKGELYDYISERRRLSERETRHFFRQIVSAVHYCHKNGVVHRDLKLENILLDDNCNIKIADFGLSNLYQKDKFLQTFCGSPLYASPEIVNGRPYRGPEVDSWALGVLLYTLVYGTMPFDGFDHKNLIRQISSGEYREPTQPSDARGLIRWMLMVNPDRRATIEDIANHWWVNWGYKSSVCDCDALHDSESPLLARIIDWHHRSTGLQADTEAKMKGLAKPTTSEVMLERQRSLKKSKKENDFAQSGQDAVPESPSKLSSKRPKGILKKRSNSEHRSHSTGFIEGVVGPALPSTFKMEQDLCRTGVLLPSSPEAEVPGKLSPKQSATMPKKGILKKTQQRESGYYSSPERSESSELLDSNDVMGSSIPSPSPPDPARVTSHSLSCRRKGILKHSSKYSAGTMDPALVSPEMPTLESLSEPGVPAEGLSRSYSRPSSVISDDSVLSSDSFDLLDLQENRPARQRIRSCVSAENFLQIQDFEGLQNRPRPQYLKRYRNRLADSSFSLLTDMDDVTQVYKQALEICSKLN
Experimental: Table S4: AMPKA kinase activity data (ADP-Glo assay)
Compound pIC50 (Fold selectivity
Table S5. Kinase selectivity screening for 9 and 24 at 1 µM against a general kinase panel of 140 targets
in radiometric filter binding assay using 33P-γ−ATP at the MRC PPU International Centre for Kinase
Profiling, University of Dundee. pIC50 values were determined for compounds with <20% activity
Kinase activity s.d. pIC50 activity s.d. pIC50

CDK6/D1 = test system: CDK6/D1; parameters: method as in Reddy et al. 28; settings: ref Reddy et al. 28; cited from earlier work
[1] = parameters: method as in PMID 24568969; settings: mice, I.V. dosing 5 mgkg^–1; cited from earlier work
CDK4/D1 = test system: CDK4/D1; parameters: method as in Reddy et al. 28; settings: ref Reddy et al. 28; cited from earlier work
[2] = Microsomal stability, human; type: in vitro ADME; settings: human liver microsomes; read-out: HLM t1/2
Experimental: All single point assay determinations carried out in duplicate.
ADMET and PK experimental methods
Microsomal stability: analysis was performed by Cyprotex Discovery. […]

PKBa, sequence (P31749 whole entry): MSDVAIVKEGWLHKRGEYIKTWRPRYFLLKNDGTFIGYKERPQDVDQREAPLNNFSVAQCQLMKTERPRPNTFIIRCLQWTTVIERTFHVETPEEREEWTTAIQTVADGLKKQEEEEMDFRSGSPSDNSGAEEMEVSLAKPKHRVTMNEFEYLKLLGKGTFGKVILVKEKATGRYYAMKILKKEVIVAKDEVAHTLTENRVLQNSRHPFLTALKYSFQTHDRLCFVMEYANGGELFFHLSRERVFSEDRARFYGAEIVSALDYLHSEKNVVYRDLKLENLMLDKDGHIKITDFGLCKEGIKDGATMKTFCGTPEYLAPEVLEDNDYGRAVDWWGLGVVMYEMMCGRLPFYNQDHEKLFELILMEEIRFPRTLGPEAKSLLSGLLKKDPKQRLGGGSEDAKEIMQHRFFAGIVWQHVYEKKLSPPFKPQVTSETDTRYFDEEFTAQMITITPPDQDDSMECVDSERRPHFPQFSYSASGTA
CK2, sequence (P68400 whole entry): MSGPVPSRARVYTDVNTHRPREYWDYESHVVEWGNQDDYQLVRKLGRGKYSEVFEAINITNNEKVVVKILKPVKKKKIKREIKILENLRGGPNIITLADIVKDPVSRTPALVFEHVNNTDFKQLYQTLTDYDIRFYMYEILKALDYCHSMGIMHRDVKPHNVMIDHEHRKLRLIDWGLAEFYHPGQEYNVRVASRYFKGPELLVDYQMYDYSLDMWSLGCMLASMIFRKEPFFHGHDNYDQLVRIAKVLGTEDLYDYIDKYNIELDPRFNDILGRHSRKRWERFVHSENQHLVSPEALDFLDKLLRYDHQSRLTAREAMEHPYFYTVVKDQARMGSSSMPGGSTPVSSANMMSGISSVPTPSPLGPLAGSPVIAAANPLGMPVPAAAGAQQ
BRK, sequence (Q13882 whole entry): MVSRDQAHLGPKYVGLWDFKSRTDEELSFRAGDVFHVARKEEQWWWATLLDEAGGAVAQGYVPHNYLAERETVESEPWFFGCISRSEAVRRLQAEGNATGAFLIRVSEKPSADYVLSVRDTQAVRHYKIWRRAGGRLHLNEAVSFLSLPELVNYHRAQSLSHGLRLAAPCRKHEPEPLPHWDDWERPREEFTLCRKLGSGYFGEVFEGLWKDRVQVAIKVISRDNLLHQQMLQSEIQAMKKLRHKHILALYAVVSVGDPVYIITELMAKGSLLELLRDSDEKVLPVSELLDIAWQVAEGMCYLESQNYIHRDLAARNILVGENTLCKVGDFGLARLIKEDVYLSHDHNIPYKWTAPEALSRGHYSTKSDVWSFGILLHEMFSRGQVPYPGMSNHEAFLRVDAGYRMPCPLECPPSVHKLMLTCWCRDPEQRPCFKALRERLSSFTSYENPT
PAK5, sequence (Q9P286 whole entry): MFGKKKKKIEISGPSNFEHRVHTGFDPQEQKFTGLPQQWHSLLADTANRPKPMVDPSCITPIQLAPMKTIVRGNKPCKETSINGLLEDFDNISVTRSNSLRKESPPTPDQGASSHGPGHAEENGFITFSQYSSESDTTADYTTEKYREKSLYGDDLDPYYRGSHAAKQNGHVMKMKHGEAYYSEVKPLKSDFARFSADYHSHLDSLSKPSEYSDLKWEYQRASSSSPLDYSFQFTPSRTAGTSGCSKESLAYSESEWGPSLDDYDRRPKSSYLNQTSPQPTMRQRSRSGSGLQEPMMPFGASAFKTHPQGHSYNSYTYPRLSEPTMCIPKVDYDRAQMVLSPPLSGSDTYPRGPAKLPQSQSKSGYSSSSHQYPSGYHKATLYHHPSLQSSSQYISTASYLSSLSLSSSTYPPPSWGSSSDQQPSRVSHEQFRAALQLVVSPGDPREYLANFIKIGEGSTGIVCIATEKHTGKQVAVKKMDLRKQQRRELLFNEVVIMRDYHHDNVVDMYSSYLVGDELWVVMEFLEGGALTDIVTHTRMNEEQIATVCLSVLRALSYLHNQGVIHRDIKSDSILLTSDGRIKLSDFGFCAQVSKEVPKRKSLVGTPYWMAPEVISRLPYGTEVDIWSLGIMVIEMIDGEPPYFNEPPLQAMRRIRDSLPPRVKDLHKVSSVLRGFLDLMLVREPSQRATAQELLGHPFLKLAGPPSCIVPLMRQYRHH
p38b MAPK, sequence (Q15759 whole entry): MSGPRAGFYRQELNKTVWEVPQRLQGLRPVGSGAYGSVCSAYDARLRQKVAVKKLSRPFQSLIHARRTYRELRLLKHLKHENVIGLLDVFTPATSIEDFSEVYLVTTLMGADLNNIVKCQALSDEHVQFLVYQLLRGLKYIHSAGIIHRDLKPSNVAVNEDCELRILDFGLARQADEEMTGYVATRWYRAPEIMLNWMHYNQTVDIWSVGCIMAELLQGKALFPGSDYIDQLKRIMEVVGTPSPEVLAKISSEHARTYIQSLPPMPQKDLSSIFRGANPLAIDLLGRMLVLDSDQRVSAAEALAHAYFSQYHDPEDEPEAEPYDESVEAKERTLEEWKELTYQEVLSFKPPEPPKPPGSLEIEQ

SMILES | % activity remaining (p38b MAPK) | % activity remaining (PKBa) | % activity remaining (PKCγ) | % activity remaining (CK2) | % activity remaining (PAK5) | % activity remaining (BRK) | % activity remaining (NUAK1) | CDK6/D1 pIC50 (CDK6/D1) | plasma half-life t1/2 [1] | CDK4/D1 pIC50 (CDK4/D1) | half-life at 1 µM [2]
CN1C2CC1CN(c1ccc(Nc3ncc4ccn(CC5CCOCC5)c4n3)cc1)C2 [Compound 24] | 108% | 110% | 81% | 96% | 99% | 58% | 14% | – | – | – | –
Cc1cc(=O)n(C2CCCC2)c2nc(Nc3ccc(N4CC5CC(C4)N5C)cc3)ncc12 [Compound 9] | 91% | 103% | 72% | 108% | 64% | 67% | 5% | – | – | – | –
CN1CCN(c2ccc(Nc3ncc4cc(C#N)c(=O)n(C5CCCC5)c4n3)cc2)CC1 [Compound 3, Narazaciclib, reference compound] | – | – | – | – | – | – | – | 8.0 | 90 min | 8.4 | 6.9 min
